Assay results published in patent US12138398B2, “Methods and devices for providing a stimulus to a subject to induce gamma oscillations” (Massachusetts Institute of Technology, priority 2015, dated 2024).

What was measured:
AD patients = conditions: AD subjects; cited from earlier work
CK-p25 Tg mice = assay: NeuN-positive cells (neuronal loss) in CK-p25 Tg mice; assay type: in vivo, mouse
Description: A study was conducted to examine the effect of gamma exposure and/or administration in accordance with some embodiments on DNA damage and neuronal loss in the visual cortex of a subject. For the study, an inducible mouse model of p25 accumulation (i.e., a creatine kinase carboxyl-terminal fragment p25 Tg mouse (CK-p25 Tg mouse)) was used. […] A study was conducted to compare groups of mice under different treatment regimens. FIG. 84 is a diagram of the groups including CK-control mice 8400, untreated CK-p25 Tg mice 8402, CK-p25 Tg mice treated with memantine (10 mg/kg daily) 8404, CK-p25 Tg mice exposed to the 40-Hz light flicker (one hour daily for 6 weeks) in accordance with some embodiments 8406, and CK-p25 Tg mice treated with memantine and also exposed to the 40-Hz light flicker 8408. Memantine is a medication used with limited success to treat severe AD by blocking NMDA receptors, thereby acting on the glutamatergic system. FIG. 98 is a bar graph comparing the amount of NeuN-positive cells as a percentage of the NeuN-positive cells in CK-control mice for the CK-control mice, untreated CK-p25 Tg mice, CK-p25 Tg mice treated with memantine, CK-p25 Tg mice exposed to the 40-Hz light flicker in accordance with some embodiments, and CK-p25 Tg mice treated with both memantine and the 40-Hz light flicker. Thus, the percentage of the CK-control mice NeuN-positive cells are 100% in the CK-control mice, but only about 80% in untreated CK-p25 Tg mice, corroborating neuronal loss in the CK-p25 Tg mouse model. […] Thus, FIG. 98 illustrates how 40-Hz visual flicker treatment in accordance with some embodiments can preserve neurons in the visual cortex.

[1] = memantine + 40-Hz light flicker
[2] = memantine alone, compared to untreated CK-p25 Tg

Question: Which “clinical outcome on cognition” value (AD patients) does the source give for CC12CC3CC(C)(C1)CC(N)(C3)C2 [memantine] here?
Answer: The value was “only mild cognitive benefits”.

Question: What about the “neuronal loss (NeuN-positive cells) in hippocampus” value (CK-p25 Tg mice; [1]) of the same compound?
Answer: The value was “prevented some neuronal loss”.

Question: What about the “neuronal loss (NeuN-positive cells) in insular cortex” value (CK-p25 Tg mice; [1]) of the same compound?
Answer: The value was “prevented the least neuronal loss”.

Question: What about the “neuronal loss (NeuN-positive cells) in somatosensory cortex” value (CK-p25 Tg mice; [1]) of the same compound?
Answer: The value was “prevented most neuronal loss”.

Question: What about the “neuronal loss (NeuN-positive cells) in visual cortex” value (CK-p25 Tg mice; [1]) of the same compound?
Answer: The value was “failed to prevent as much neuronal loss”.

Question: What about the “neuronal loss (NeuN-positive cells) in hippocampus” value (CK-p25 Tg mice; [2]) of the same compound?
Answer: The value was “prevented some neuronal loss”.

Question: What about the “neuronal loss (NeuN-positive cells) in insular cortex” value (CK-p25 Tg mice; [2]) of the same compound?
Answer: Its value is “prevented some neuronal loss”.

Question: And the “neuronal loss (NeuN-positive cells) in somatosensory cortex” value (CK-p25 Tg mice; [2])?
Answer: The value was “failed to prevent any neuronal loss”.

Question: What about the “neuronal loss (NeuN-positive cells) in visual cortex” value (CK-p25 Tg mice; [2]) of the same compound?
Answer: Its value is “prevented some neuronal loss”.
